One block for each molecule: values may come before it.
Assays:
[1] = Weight gain and condition, 4-week repeat-dose trial in (db-/db-) mice; type: in vivo
Method: A randomized, controlled, repeat-dose, 4-week trial was conducted on (db−/db−) mice, which are defective for the leptin receptor (Jackson Laboratories). These mice are genetically obese, dyslipidemic, and diabetic.
(§1) Methods: Mice were obtained from Jackson Laboratories and acclimated to the facility. At about 5 weeks of age, mice were prospectively randomized into groups and assigned to the treatment conditions shown in FIG. 1. Topical treatments were applied in a thin film to the right flank skin without occlusive dressings; subcutaneous injections were also administered to the right flank. […] They were housed in the same room, in 11 cages according to group, and fed ad libitum. Skin tissue was sampled and serum lipids tested on day 28. Tissue was fixed in formalin and stained with hematoxylin and eosin.

[2] = Serum lipids on day 28, (db-/db-) mice; type: in vivo
Method: as §1
FIG. 5 charts the triglyceride and total cholesterol results (mg/dl) for the topical treatment conditions as follows: Group 1=C, 3=D, 4=E, 5=F, 6=G, 10=H, 11=I.

[3] = tested on: subcutaneous fat; assay: Histologic sections of skin and subcutaneous fat, (db-/db-) mice; type: in vivo; details: for adipocytes and adipose layer, treated (right) flank / adipocytes and adipose layer, untreated (left) flank: day 28; for local versus systemic effect by histology: topical, concentration up to 0.3%
Method: as §1
All sections are shown at the same magnification (scale bar at top right=640 microns). The surface of the skin is oriented toward the top and left of each panel. Arrows in each section denote the panniculus carnosus, an anatomic layer that separates the first layer of subdermal fat from deeper, subpannicular fat (separation artifact is commonly seen deep to the panniculus and is not an in vivo process).

[4] = Projected systemic dose, mouse (FIG. 12); type: in vivo; details: topical, 100% serum bioavailability assumed
Description: (§2) FIG. 12 compares various topical doses of latanoprost in mouse, rat, and human, with respect to projected systemic dose. All calculations assume once-daily dosing and 100% serum bioavailability. The derivation of each dose is set forth based on the animal body weight, drug concentration, and drug volume. Finally, doses are scaled allometrically for body surface area (mg/m^2/d), as is appropriate for most low-molecular-weight molecules.

[5] = obese adults, 120 mg three times daily, after two years; cited from earlier work
[6] = Weight gain, food consumption and condition, 4-week study of latanoprost transdermal cream in ZDF rats; type: in vivo; details: for mean weight gain for days 0 to 29: 0.3 ml daily, vs vehicle
Method: A controlled, repeat-dose, 4-week, dose-ranging study of latanoprost transdermal cream was conducted in Zucker Diabetic Fatty (ZDF) rats (ZDF-Lepr^fa/Crl), which are defective for the leptin receptor, obese, hyperlipidemic, and diabetic.
(§3) Methods: Male ZDF rats, approximately 8 weeks old, were obtained from Jackson Laboratories and acclimated to the facility. There were 3 animals per treatment arm. Test articles were applied in a thin film to the right flank without occlusive dressings, at 0.3 ml daily for 28 days. Rats were fed ad libitum and housed in the same room in 4 cages according to group. […] Food consumption was measured by residual weight of chow. Animals were fasted overnight prior to day 29, and Oral Glucose Tolerance Tests were conducted on day 29 (1 g glucose per kg body weight). Skin tissue and serum chemistries were collected at day 29.

[7] = tested on: subcutaneous fat; assay: Histologic sections of skin and subcutaneous fat, ZDF rats; type: in vivo
Method: as §3
All sections are shown at the same magnification (scale bar at top right=500 microns). The surface of the skin is oriented toward the top of each panel.

[8] = Serum lipid levels on day 29, ZDF rats; type: in vivo
Method: as §3

[9] = Oral Glucose Tolerance Test on day 29, ZDF rats; type: in vivo; details: for oral glucose tolerance: day 29; for serum glucose AUC15-120 lower compared to vehicle-treated animals: 15 to 120 minutes post-glucose load
Method: as §3

[10] = Minimum effective dose and projected systemic dose, rat (FIG. 12); type: in vivo
Description: These effects were dose-dependent, and the minimum effective dose for these effects was deemed to be the 0.05% concentration.
as §2

[11] = Human ophthalmic dose and projected human transdermal dose (FIG. 12); details: by comparison to minimum effective dose in the rat
Description: as §2

[12] = Clinical application: person with metabolic syndrome, latanoprost transdermal 0.7% gel (Example 7); type: in vivo, human; details: 2 ml once daily, 1 to 6 months
Method: The following description exemplifies a clinical application of the invention to treat obesity, dyslipidemia, and type 2 diabetes mellitus in a person with metabolic syndrome.
A person is suffers from obesity, dyslipidemia, and type 2 diabetes. […] Their waist circumference is 42 inches. Their noninvasive blood pressure is 184/98. Their fasting serum glucose is […] and their glycated hemoglobin (hemoglobin A1C) is 8.1. Fasting serum lipids are as follows: triglycerides, 220 mg/dL; total cholesterol, 310 mg/dL, LDL 240 mg/dL, HDL, 35 mg/dL. Their physical exam is notable for prominent central (abdominal) obesity. In addition to medical therapy, the person's physician recommends a regimen of diet and exercise. After six months the person's weight, hemoglobin A1C, serum glucose, and serum lipids are unimproved. The physician prescribes systemic therapy with latanoprost, for example, a transdermal 0.7% gel in a metered-dose dispenser, with instructions to apply 2 ml metered dose once daily to the skin of the shoulders. After a period of time, for example from 1 to 6 months, the person's weight is reduced. Serum glucose, hemoglobin A1C, fasting serum LDL, and fasting serum triglycerides also diminish. Fasting serum HDL rises.

[13] = in vivo; cited from earlier work
[14] = Clinical application: person with dyslipidemia, oral extended-release tafluprost (Example 8); type: in vivo, human; details: oral extended-release 5 mg daily, 1 to 6 months
Description: The following description exemplifies a clinical application of the invention to reduce lipid concentrations in a patient with dyslipidemia and a history of coronary artery disease and myocardial infarction. A person with a history of obesity, hyperlipidemia, coronary artery disease, and myocardial infarction is found to have elevated serum triglycerides, total cholesterol, and low density lipoprotein, despite use of a statin. The person's physician prescribes an oral, extended-release formulation of tafluprost, for example, an extended-release tablet comprising 5 mg tafluprost, with instructions to take one capsule by mouth daily. After a period of time, for example from 1 to 6 months, the person's serum triglycerides, total cholesterol, and low density lipoprotein concentrations are reduced. Body weight is also seen to improve.

[15] = transdermal/topical to right flank skin, vs vehicle
[16] = topical 0.5% and 0.05%, day 29, vs vehicle, not statistically significant

SMILES: O=C(O)CCC/C=C\C[C@@H]1[C@@H](/C=C/[C@@H](O)CCc2ccccc2)[C@H](O)C[C@@H]1O [BFA, 17-phenyl trinor prostaglandin F2α]
mean weight gain for days 0 to 28 ([1]; intraperitoneal): no significant effect on weight gain
mean weight gain for days 0 to 28 ([1]; subcutaneous, right flank): no significant effect on weight gain
mean weight gain for days 0 to 28 [1, 15]: reduced weight gain significantly and in a dose-dependent manner
serum lipids ([2]; intraperitoneal, day 28): no significant effect on serum lipids
serum lipids ([2]; subcutaneous, day 28): no significant effect on serum lipids
serum triglycerides ([2]; transdermal 0.1% or 0.3%, unfasted, day 28, vs control): significantly reduced

SMILES: CC(C)OC(=O)CCC/C=C\C[C@@H]1[C@@H](/C=C/[C@@H](O)CCc2ccccc2)[C@H](O)C[C@@H]1O [BIE, 17-phenyl trinor prostaglandin F2α isopropyl ester]
mean weight gain for days 0 to 28 ([1]; subcutaneous, right flank): no significant effect on weight gain
potency of transdermal BIE relative to transdermal BFA, for each effect (weight gain, serum lipids) ([1]; transdermal): more potent
mean weight gain for days 0 to 28 [1, 15]: reduced weight gain significantly and in a dose-dependent manner
adipocytes deep to the panniculus ([3]; topical 0.3%): profound shrinkage of adipocytes deep to the panniculus
adipocytes and adipose layer, treated (right) flank ([3]; topical 0.3%): smaller adipocytes and thinner adipocyte layers
adipocytes and adipose layer, untreated (left) flank ([3]; topical 0.3%): smaller adipocytes and thinner adipocyte layers
local versus systemic effect by histology [3]: indicative of a systemic effect
serum lipids ([2]; subcutaneous, day 28): no significant effect on serum lipids
serum total cholesterol ([2]; transdermal 0.1%, unfasted, day 28): significantly lower
systemic dose at which serum lipids and obesity responded [4]: 10 mg/m^2/d

SMILES: CCCCCCCCCCC[C@@H](C[C@@H]1OC(=O)[C@H]1CCCCCC)OC(=O)[C@H](CC(C)C)NC=O [Orlistat]
loss of baseline body weight [5]: 8.8%
serum lipids and serum glucose [5]: not accompanied by any absolute improvement in serum lipids or serum glucose

SMILES: CCNC(=O)CCC/C=C\C[C@@H]1[C@@H](/C=C/[C@@H](O)CCc2ccccc2)[C@H](O)C[C@@H]1O [bimatoprost, 17-phenyl trinor prostaglandin F2α ethyl amide]
adipocytes and adipose layer, treated (right) flank ([3]; topical 0.3%): smaller adipocytes and a thinner adipose layer
adipocytes and adipose layer, untreated (left) flank ([3]; topical 0.3%): resembled that of a vehicle-treated animal
local versus systemic effect by histology [3]: local effect, but not a systemic effect
serum lipids ([2]; topical, day 28): no significant effect on serum lipids

daily observations and skin condition ([6]; topical 0.005-0.5%, 28 days): unremarkable
SMILES: CC(C)OC(=O)CCC/C=C\C[C@@H]1[C@@H](CC[C@@H](O)CCc2ccccc2)[C@H](O)C[C@@H]1O [latanoprost, 17-phenyl-13,14-dihydro trinor prostaglandin F2α isopropyl ester]
mean weight gain for days 0 to 29 ([6]; topical 0.005%): dose-dependent reductions in weight gain
mean weight gain for days 0 to 29 ([6]; topical 0.05%): dose-dependent reductions in weight gain, which were statistically significant
mean weight gain for days 0 to 29 ([6]; topical 0.5%): dose-dependent reductions in weight gain, which were statistically significant
adipocytes and adipose layer, treated (right) flank ([7]; topical 0.005%): fewer and smaller adipocytes, and a thinner adipose layer
adipocytes and adipose layer, untreated (left) flank ([7]; topical 0.005%): resembled that of a vehicle-treated animal
local versus systemic effect by histology ([7]; topical 0.005%): local effect, but not a systemic effect
adipocytes, adipose layer and dermis, treated flank ([7]; topical 0.5%): fewer and smaller adipocytes, and thinner adipose layer and dermis
adipocytes, adipose layer and dermis, untreated flank ([7]; topical 0.5%): fewer and smaller adipocytes, and thinner adipose layer and dermis
local versus systemic effect by histology ([7]; topical 0.5%): indicative of a systemic effect
serum lipid benefits (triglycerides, LDL, HDL, HDL:LDL ratio) ([8]; topical 0.005%, day 29): absent
HDL:LDL ratio ([8]; topical 0.5% and 0.05%, day 29, vs vehicle, 0.5% one-sided p<0.05): dose-dependent increases
serum HDL [8, 16]: dose-dependent increases
serum LDL [8, 16]: dose-dependent reductions
serum triglycerides [8, 16]: dose-dependent reductions
oral glucose tolerance ([9]; topical 0.005%): no effect on oral glucose tolerance
serum glucose AUC15-120 lower compared to vehicle-treated animals ([9]; topical 0.05%): 12%
oral glucose tolerance ([9]; topical 0.5% and 0.05%): dose-dependent improvements in oral glucose tolerance
serum glucose AUC15-120 lower compared to vehicle-treated animals ([9]; topical 0.5%): 26%
minimum effective dose of topical latanoprost, as concentration ([10]; rat, equivalent of 0.05%): 0.5 mg/mL
systemic dose corresponding to minimum effective topical dose ([10]; rat, once-daily dosing, 100% serum bioavailability assumed, scaled for body surface area): 3.6 mg/m^2/d
minimum effective dose (concentration) for weight gain, serum lipids, glucose tolerance ([10]; transdermal, ZDF rat): 0.05%
predicted human transdermal dose sufficient for systemic benefit (serum lipids, diabetic condition, obesity) [11]: about 7 mg per day
fasting serum HDL [12]: rises
serum glucose, hemoglobin A1C, fasting serum LDL, fasting serum triglycerides [12]: diminish
weight [12]: reduced
serum elimination half-life [13]: about 17 minutes

SMILES: CC(C)OC(=O)CCC/C=C\C[C@@H]1[C@@H](/C=C/C(F)(F)COc2ccccc2)[C@H](O)C[C@@H]1O [tafluprost]
body weight [14]: improve
serum triglycerides, total cholesterol, low density lipoprotein concentrations [14]: reduced

— US10335418B2, “Methods and compositions for treating metabolic syndrome” (Topokine Therapeutics, Inc., priority 2011, dated 2019)
